The source of these data is patent publication US11865146B2 (priority 2015, dated 2024).

The test relates to C. difficile strain 630. To be noted: BDM without glucose.

Description: All strains for this study were maintained inside an anaerobic growth chamber with a gas mixture of 75% N2/20% CO2/5% H2 (Coy Lab Products, Grass Lake, MI). Liquid and solid growth media was allowed to reduce in the anaerobic chamber for a minimum of 24 hours prior to use. For transfer out of the chamber, liquid stocks were sealed in sterile, gas-tight crimp cap glass vials. C. difficile strain 630 was maintained at 37° C. on Clostridium difficile Moxalactam Norfloxacin (CDMN) blood agar plates (Aspinall et al. 1992 J Clin Pathol. 45:812-814), in Reinforced Clostridial Medium (RCM) broth (Difco DF1808173), or in Basal Defined Medium (BDM) (Karasawa et al. 1995 Microbiology. 141:371-375) broth. C. difficile amino acid (AA) utilization was assessed using modified BDM containing ½ or ¼ of the standard AA content. Proline utilization was assessed in modified BDM lacking glucose and proline. Bacterial growth rates were assessed using a BioTek Eon microplate spectrophotometer (BioTek, Winooski, VT).

For `O=C(O)[C@@H]1CCCN1` [proline], the “C. difficile growth in the absence of proline” value is “unable to grow”.
